Test results as given in patent US7972829B2, “Process for producing transglutaminase” (Ajinomoto Co., Inc., priority 1999, dated 2011).
“Also recorded” adds a separate entry of the source. Where two headings read alike, the source gives them in different places. *1 amine or outer side, *2 acyl side, *3 side chain or, on linkers, in order; H or OH if unused. Where a SMILES comes first, the peptide text is derived from it. Primed or numbered codes have the meaning given here. Where no end group is shown, it is not given here. [ ]: non-standard residue; d: D form. The star is where a group is joined. Sta = CC(C)C[C@H](N)[C@@H](O)CC(=O)O; pNA = O=[N+]([O-])c1ccc(N*)cc1; Suc = O=C(CCC(=O)[*:2])[*:1]; Isovaleryl = CC(C)CC(=O)*; code Z = not defined here; βNA = c1ccc2cc(N*)ccc2c1; Bz′ = not defined here; Cbz = O=C(OCc1ccccc1)*

How the values were obtained:
[1] = tested on: proline specific peptidase (svPEP); test: Effects of inhibitors on the activity of proline specific peptidase (svPEP), Ala-Ala-Pro-pNA as substrate; assay type: biochemical, S. mobaraense IFO13819; settings: for inhibition of svPEP activity (in words): Ala-Ala-Pro-pNA as substrate
[2] = tested on: proline specific peptidase (svPEP); test: Substrate specificity of svPEP (cleaving activity on pNA-, βNA-conjugated peptides and peptides); assay type: biochemical, S. mobaraense IFO13819; settings: for relative activity (specificity of svPEP for peptide substrate): 20 mM sodium phosphate buffer pH 6.5, 37° C., 5 min, AAP-pNA = 100; for substrate recognition by svPEP (in words): cleavage at carboxyl terminal side of proline residue
[3] = Transglutaminase activity by hydroxamate method; assay type: biochemical
[4] = Enzyme properties of svPEP (optimum pH, pH stability, optimum temperature, temperature stability); assay type: biochemical
Procedure: were used as a buffer, respectively. The enzyme was allowed to act on Ala-Ala-Pro-pNA as the substrate at 30° C. for 5 minutes. Relative activity of the enzyme in each buffer was calculated compared to the activity in 20 mM sodium phosphate buffer, pH6.5 as 100%. […] (iii) pH Stability
0.15 M GTA buffers (buffers composed of 3,3-dimethylglutaric acid, tris(hydroxymethyl)aminomethane, 2-amino-2-methyl-1,3-propanediol) ranging between pH 3 and pH10 were used. To 20 µl of purified enzyme solution, 40 μl of the buffer at each pH was added and the reaction mixtures were allowed to stand overnight at 4° C., then adjusted to pH 7.0 and the volume was made up to 120 μl. To 50 μl aliquots, Ala-Ala-Pro-pNA was added and the reaction was performed at 30° C. for 5 minutes. Relative amounts of substrate which the enzyme decomposed at each pH were considered to be the remaining activity compared to the activity of the enzyme as 100% when the enzyme was stored under the same condition as described above except for pH 7.0.
To 50 μl of purified enzyme solution, 0.5 ml of 20 mM sodium phosphate buffer (pH 6.5) was added and Ala-Ala-Pro-pNA was added up to 0.25 mM and the mixture was maintained at 20° C.-60° C. for 5 minutes to effect decomposition reaction. Relative amount of substrate which the enzyme decomposed was considered to be the relative activity at each temperature, compared to the amount of substrate decomposition at 25° C. as 100% activity.
To 50 μl of purified enzyme solution, 0.5 ml of 20 mM sodium phosphate buffer (pH 6.5) was added. The mixture was maintained at 4° C. or 20° C.-60° C. for 15 minutes and then cooled on ice. Ala-Ala-Pro-pNA was added up to 0.25 mM and the mixture was maintained at 30° C. for 5 minutes. The remaining activity was calculated assuming the activity of the enzyme which was treated at 4° C. to be 100%.

[5] = Isoelectric point of svPEP; assay type: physicochemical
[6] = compound 10 mM, 10 min room temperature, then Ala-Ala-Pro-pNA, 30° C., 5 min, activity without compound = 100%
[7] = compound 1 mM, 10 min room temperature, then Ala-Ala-Pro-pNA, 30° C., 5 min, activity without compound = 100%

For `O[C@H](CS)[C@H](O)CS` (racemic) [Dithiothreitol], the relative activity [1, 6] was 102.5%.

In the case of `c1cnc2c(c1)ccc1cccnc12` [1,10-Phenanthroline], the relative activity [1, 7] is reported as 92.5%.

Work on `CC(C)C[C@H](NC(=O)[C@@H](O)[C@H](N)Cc1ccccc1)C(=O)O` [Bestatin] yielded a relative activity [1, 7] of 97.6%.

Work on `CC(C)C[C@H](NC(=O)[C@@H](NC(=O)N[C@@H](Cc1ccccc1)C(=O)O)[C@@H]1CCN=C(N)N1)C(=O)N[C@H](C=O)Cc1ccccc1` [Chymostatin] yielded a relative activity [1] of 84.9%.

`O=C(O)CN(CCN(CC(=O)O)CC(=O)O)CC(=O)O` [EDTA] gave a relative activity [1, 6] of 105.2%.

With `NC(=O)CI` [Iodoacetamide] the relative activity [1] was 87%.

`CCN1C(=O)C=CC1=O` [N-Ethylmaleimide] gave a relative activity [1, 7] of 98.3%.

`CC(C)CC(=O)N[C@H](C(=O)N[C@H](C(=O)N[C@@H](CC(C)C)[C@@H](O)CC(=O)N[C@@H](C)C(=O)N[C@@H](CC(C)C)[C@@H](O)CC(=O)O)C(C)C)C(C)C` [Pepstatin] (Isovaleryl-VV[Sta]A[Sta]-OH) gave a relative activity [1, 7] of 165.7%.

For `O=S(=O)(F)Cc1ccccc1` [Phenylmethylsulfonylfluoride], the “inhibition of svPEP activity (in words)” value ([1]; listed as phenyl methylsulfonylfluoride) was “comparatively strong inhibition”, the “inhibition of svPEP activity (in words)” value ([1]; listed as phenylmethylsulfonyl fluoride) was “inhibited” and the relative activity [1, 7] was 39.7%.

For `O=C[C@@H]1CCCN1C(=O)[C@@H]1CCCN1C(=O)OCc1ccccc1` [Z-(S)Pro-(S)Prolinal] (Cbz-Pro-Pro-aldehyde), the relative activity [1, 7] was 111.2%.

In the case of `O=C[C@@H]1CCCN1C(=O)[C@@H]1CCCN1C(=O)OCc1ccccc1` [Z-Pro-(S)Prolinal] (Cbz-Pro-Pro-aldehyde), the relative activity [1, 7] is reported as 105.8%.

In the case of `O=C[C@@H]1CCCN1C(=O)[C@@H]1CCCN1C(=O)OCc1ccccc1` [Z-Pro-Prolinal] (Cbz-Pro-Pro-aldehyde), the relative activity [1, 7] is reported as 99.7%.

With `O=C(O)c1cc[c]([Hg][Cl])cc1` [p-Chloromercuribenzoic acid] the “inhibition of svPEP activity (in words)” value [1] was “inhibited to some extent” and the relative activity [1, 7] was 87.1%.

For AAA-pNA, the “relative activity (specificity of svPEP for peptide substrate)” value [2] was 8.5%.

With “AAF-pNA (Ala-Ala-Phe-pNA) [p-nitroanilide peptide substrate for svPEP]” the “relative activity (specificity of svPEP for peptide substrate)” value [2] was 4.1%.

In the case of “AAPL-pNA [p-nitroanilide peptide substrate for svPEP]”, the “relative activity (specificity of svPEP for peptide substrate)” value [2] is reported as 0.3%.

In the case of “Ala-Ala-Pro-pNA [AAP-pNA, p-nitroanilide peptide substrate for svPEP]”, the “relative activity (specificity of svPEP for peptide substrate)” value [2] is reported as 100% and the “substrate recognition by svPEP (in words)” value (from here on “substrate recognition”) [2] is reported as “preferably recognized”.

For “Ala-Phe-Pro-pNA [AFP-pNA, p-nitroanilide peptide substrate for svPEP]”, the “relative activity (specificity of svPEP for peptide substrate)” value [2] was 26.3% and the “substrate recognition” value [2] was “preferably recognized”.

For “Aminoethylbenzenesulfonylfluoride hydrochloride”, the “inhibition of svPEP activity (in words)” value ([1]; hydrochloride) was “comparatively strong inhibition; also recorded: inhibited” and the relative activity ([1]; compound 4 mM, 10 min room temperature, then Ala-Ala-Pro-pNA, 30° C., 5 min, activity without compound = 100%) was 59.9%.

With “Bz-Phe-Val-Arg-pNA ({Bz′}-Phe-Val-Arg-pNA) [Bz-FVR-pNA, p-nitroanilide peptide substrate]” the “relative activity (specificity of svPEP for peptide substrate)” value [2] was 0.002%.

In the case of “PSFRAP-pNA [p-nitroanilide peptide substrate for svPEP]”, the “relative activity (specificity of svPEP for peptide substrate)” value [2] is reported as 0.2%.

For Phe-Arg-Ala-Pro-pNA (FRAP-pNA), the “relative activity (specificity of svPEP for peptide substrate)” value [2] was 49.0% and the “substrate recognition” value [2] was “preferably recognized”.

In the case of “SFRAP-pNA [p-nitroanilide peptide substrate for svPEP]”, the “relative activity (specificity of svPEP for peptide substrate)” value [2] is reported as 1.23%.

With “Suc-AAPF-pNA [p-nitroanilide peptide substrate for svPEP]” the “relative activity (specificity of svPEP for peptide substrate)” value [2] was 0.01%.

With “Z-AGP-βNA ({code Z}-Ala-Gly-Pro-βNA; reading uncertain; also: printed as Z-AGP-βNA) [β-naphtylamido peptide substrate for svPEP]” the “relative activity (specificity of svPEP for peptide substrate)” value [2] was 0.78%.

For “Z-GAP-βNA ({code Z}-Gly-Ala-Pro-βNA; reading uncertain; also: printed as Z-GAP-βNA) [β-naphtylamido peptide substrate for svPEP]”, the “relative activity (specificity of svPEP for peptide substrate)” value [2] was 1.2%.

In the case of p-pNA, the “relative activity (specificity of svPEP for peptide substrate)” value [2] is reported as 0.04%.

B1: transglutaminase: S. mobaraense transglutaminase secreto-produced as pro-form in C. glutamicum ATCC13869, pro-structure part cleaved by protease (protein)
chain: DSDDRVTPPAEPLDRMPDPYRPSYGRAETVVNNYIRKWQQVYSHRDGRKQQMTEEQREWLSYGCVGVTWVNSGQYPTNRLAFASFDEDRFKNELKNGRPRSGETRAEFEGRVAKESFDEEKGFQRAREVASVMNRALENAHDESAYLDNLKKELANGNDALRNEDARSPFYSALRNTPSFKERNGGNHDPSRMKAVIYSKHFWSGQDRSSSADKRKYGDPDAFRPAPGTGLVDMSRDRNIPRSPTSPGEGFVNFDYGWFGAQTEADADKTVWTHGNHYHAPNGSLGAMHVYESKFRNWSEGYSDFDRGAYVITFIPKSWNTAPDKVKQGWP
modifications: Streptoverticillium mobaraense
notes: S. mobaraense transglutaminase secreto-produced as pro-form in C. glutamicum ATCC13869, pro-structure part cleaved by protease
With B1 the specific activity ([3]; after Dispase digestion (37° C., pH 7.5, 1 hour) of culture supernatant of C. glutamicum ATCC13869 harboring pVKPTG1-4 or pPKPTG1-4) was “about 20 U/mg”, the specific activity ([3]; after Dispase digestion (37° C., pH 7.5, 1 hour) of culture supernatant of C. glutamicum harboring pVKSPTG1, pVTSPTG1, pPKSPTG1 or pPTSPTG1) was “about 20 U/mg” and the specific activity ([3]; culture supernatant of C. glutamicum harboring pVSS1 (SAMP45) and pPKSPTG1, Phe-Arg-Ala-Pro added at N-terminal) was “about 20 U/mg”. The specific activity ([3]; culture supernatant of C. glutamicum harboring pVSS1 and pPKSPTG11 or pPKSPTG12) was “about 20 U/mg”, the specific activity ([3]; culture supernatant of C. glutamicum harboring pVSSSP1 (SAMP45 and svPEP) and pPKSPTG1) was “about 20 U/mg” and the specific activity ([3]; pro-structure cleaved with culture medium of S. mobaraense IFO13819, 30° C., 6 hours) was “about 20 U/mg”. For the same molecule, the specific activity ([3]; pro-structure cleaved with washed cells of S. mobaraense, 30° C., 6 hours) was “about 20 U/mg”.

B2: svPEP: proline-specific peptidase produced by S. mobaraense IFO13819; mature sequence SEQ ID NO:40 (protein)
chain: QADIKDRILKIPGMKFVEEKPYQGYRYLVMTYRQPVDHRNPGKGTFEQRFTLLHKDTDRPTVFFTSGYNVSTNPSRSEPTRIVDGNQVSMEYRFFTPSRPQPADWSKLDIWQAASDQHRLYQALKPVYGKNWLATGGSKGGMTATYFRRFYPNDMNGTVAYVAPNDVNDKEDSAYDKFFQNVGDKACRTQLNSVQREALVRRDEIVARYEKWAKENGKTFKVVGSADKAYENVVLDLVWSFWQYHLQSDCASVPATKASTDELYKFIDDISGFDGYTDQGLERFTPYYYQAGTQLGAPTVKNPHLKGVLRYPGINQPRSYVPRDIPMTFRPGAMADVDRWVREDSRNMLFVYGQNDPWSGEPFRLGKGAAARHDYRFYAPGGNHGSNIAQLVADERAKATAEVLKWAGVAPQAVQKDEKAAKPLAPFDAKLDRVKNDKQSALRP
modifications: Streptoverticillium mobaraense
In the case of B2, the “optimum pH” value ([4]; Ala-Ala-Pro-pNA, 30° C., 5 min) is reported as 6.0-6.5, the “pH stability (stable at pH)” value ([4]; overnight at 4° C. in 0.15 M GTA buffers pH 3 to 10) is reported as 4-9 and the optimum temperature ([4]; pH 6.5, 20° C.-60° C., 5 min) is reported as 25-30 °C. The “temperature stability (stable below)” value ([4]; pH 6.5, 15 min at 4° C. or 20° C.-60° C.) was “below 20 °C” and the isoelectric point [5] was 10.2.
